From publication PMC12203862, “BroadAMP-GPT: AI-Driven generation of broad-spectrum antimicrobial peptides for combating multidrug-resistant ESKAPE pathogens” (Gut Microbes, 2025)
Values after ≈ are worked out from the molar mass of the structure shown. Read-outs that look alike come from different tables or passages of the source.

Legend:
S. aureus ATCC 29213 = test: microbe, parasite or virus in culture; type: cell-based; details: Staphylococcus aureus, ATCC29213
A. baumannii 7979 = test: microbe, parasite or virus in culture; type: cell-based; details: Acinetobacter baumannii; Table 1; A. baumannii 7979; broth microdilution; read-out: MIC
Description: (§1) Bacterial strains and growth conditions: All Gram-negative and Gram-positive bacterial strains (Supplementary Table S8) were cultured in Luria-Bertani (LB) or trypticase soy broth (TSB) agar plates, respectively, and incubated overnight at 37 °C unless specifically indicated. A single colony of the tested bacterial strains was inoculated into medium broth with shaking at 220 rpm for further experiments.
(§2) Minimal inhibitory concentrations: Antimicrobial susceptibility testing was performed by broth microdilution method for AMPs against Gram-positive and Gram-negative pathogens above mentioned, following the methods of document CLSI M100-ED34.[43] The MICs were defined as the lowest concentrations that inhibit visible growth of the tested bacteria. E. coli ATCC 25,922 and S. aureus ATCC 29,213 were served as quality controls.

A. baumannii AB11 = test: microbe, parasite or virus in culture; type: cell-based; details: Acinetobacter baumannii; Table 1; A. baumannii AB11; broth microdilution; read-out: MIC
Description: as §1, §2

E. coli ATCC 25922 = test: microbe, parasite or virus in culture; type: cell-based; details: Escherichia coli, ATCC25922; Table 1; E. coli ATCC 25922; broth microdilution; read-out: MIC
Description: as §1, §2

E. faecalis ES01 = test: microbe, parasite or virus in culture; type: cell-based; details: Enterococcus faecalis; Table 1; E. faecalis ES01; ermB, vanB; broth microdilution; read-out: MIC
Description: as §1, §2

E. faecalis J2 = test: microbe, parasite or virus in culture; type: cell-based; details: Enterococcus faecalis; Table 1; E. faecalis J2; ermB, optrA; broth microdilution; read-out: MIC
Description: as §1, §2

E. faecalis JH2-2 = test: microbe, parasite or virus in culture; type: cell-based; details: Enterococcus faecalis, JH22; Table 1; E. faecalis JH2-2; broth microdilution; read-out: MIC
Description: as §1, §2

E. faecalis SF23-1 = test: microbe, parasite or virus in culture; type: cell-based; details: Enterococcus faecalis, SF231; Table 1; E. faecalis SF23-1; ermB, tetL, cfr; broth microdilution; read-out: MIC
Description: as §1, §2

E. faecium HFY01 = test: microbe, parasite or virus in culture; type: cell-based; details: Enterococcus faecium; Table 1; E. faecium HFY01; broth microdilution; read-out: MIC
Description: as §1, §2

E. faecium MC38 = test: microbe, parasite or virus in culture; type: cell-based; details: Enterococcus faecium; Table 1; E. faecium MC38; ermB, optrA; broth microdilution; read-out: MIC
Description: as §1, §2

E. faecium QF31 = test: microbe, parasite or virus in culture; type: cell-based; details: Enterococcus faecium; Table 1; E. faecium QF31; ermB, cfr; broth microdilution; read-out: MIC
Description: as §1, §2

K. pneumoniae 9-1 = test: microbe, parasite or virus in culture; type: cell-based; details: Klebsiella pneumoniae, 91; Table 1; K. pneumoniae 9-1; broth microdilution; read-out: MIC
Description: as §1, §2

P. aeruginosa PA14 = test: microbe, parasite or virus in culture; type: cell-based; details: Pseudomonas aeruginosa; Table 1; P. aeruginosa PA14; broth microdilution; read-out: MIC
Description: as §1, §2

P. aeruginosa PAO1 = test: microbe, parasite or virus in culture; type: cell-based; details: Pseudomonas aeruginosa; Table 1; P. aeruginosa PAO1; broth microdilution; read-out: MIC
Description: as §1, §2

S. agalactiae DL03 = test: microbe, parasite or virus in culture; type: cell-based; details: Streptococcus agalactiae; Table 1; S. agalactiae DL03; ermB; broth microdilution; read-out: MIC
Description: as §1, §2

S. aureus M147-2 = test: microbe, parasite or virus in culture; type: cell-based; details: Staphylococcus aureus, M1472; Table 1; S. aureus M147-2; ermB, tetL, cfr; broth microdilution; read-out: MIC
Description: as §1, §2

S. aureus M92-1 = test: microbe, parasite or virus in culture; type: cell-based; details: Staphylococcus aureus, M921; Table 1; S. aureus M92-1; ermB, tetL, optrA; broth microdilution; read-out: MIC
Description: as §1, §2

S. aureus YZSA-15 = test: microbe, parasite or virus in culture; type: cell-based; details: Staphylococcus aureus, YZSA15; Table 1; S. aureus YZSA-15; ermC, vanB; broth microdilution; read-out: MIC
Description: as §1, §2

S. aureus YZSA-21 = test: microbe, parasite or virus in culture; type: cell-based; details: Staphylococcus aureus, YZSA21; Table 1; S. aureus YZSA-21; ermC; broth microdilution; read-out: MIC
Description: as §1, §2

S. aureus YZSA-24 = test: microbe, parasite or virus in culture; type: cell-based; details: Staphylococcus aureus, YZSA24; Table 1; S. aureus YZSA-24; ermC, mecA; broth microdilution; read-out: MIC
Description: as §1, §2

S. pyogenes DL02 = test: microbe, parasite or virus in culture; type: cell-based; details: Streptococcus pyogenes; Table 1; S. pyogenes DL02; ermB; broth microdilution; read-out: MIC
Description: as §1, §2

S. suis SH0918 = test: microbe, parasite or virus in culture; type: cell-based; details: Streptococcus suis; Table 1; S. suis SH0918; ermB, tetO, optrA; broth microdilution; read-out: MIC
Description: as §1, §2

S. suis P1/7 = test: microbe, parasite or virus in culture; details: Streptococcus suis, P1/7
Description: as §1
as §2, with “bacteria.” for “bacteria. E. coli ATCC 25,922 and S. aureus ATCC 29,213 were served as quality controls.”

S. enteritis S1 = test: organism not typed; type: cell-based; details: Table 1; S. enteritis S1; broth microdilution; read-out: MIC
Description: as §1, §2

[1] = Table 1, S. aureus ATCC 29213, broth microdilution, CLSI M100-ED34, read-out: MIC

| SMILES | MIC (A. baumannii 7979) | MIC (A. baumannii AB11) | MIC (E. coli ATCC 25922) | MIC (E. faecalis ES01) | MIC (E. faecalis J2) | MIC (E. faecalis JH2-2) | MIC (E. faecalis SF23-1) | MIC (E. faecium HFY01) | MIC (E. faecium MC38) | MIC (E. faecium QF31) | MIC (K. pneumoniae 9-1) | MIC (P. aeruginosa PA14) | MIC (P. aeruginosa PAO1) | MIC (S. agalactiae DL03) | MIC (S. aureus M147-2) | MIC (S. aureus M92-1) | MIC (S. aureus YZSA-15) | MIC (S. aureus YZSA-21) | MIC (S. aureus YZSA-24) | MIC (S. pyogenes DL02) | also measured |
| --- | --- | --- | --- | --- | --- | --- | --- | --- | --- | --- | --- | --- | --- | --- | --- | --- | --- | --- | --- | --- | --- |
| CC1(C)S[C@@H]2[C@H](NC(=O)[C@H](N)c3ccccc3)C(=O)N2[C@H]1C(=O)O [AMP, Ampicillin] | > 64 µg/mL | < 0.06 µg/mL | 2 µg/mL (≈ 5.72 µM) | 16 µg/mL (≈ 45.8 µM) | 16 µg/mL (≈ 45.8 µM) | 16 µg/mL (≈ 45.8 µM) | 16 µg/mL (≈ 45.8 µM) | 1 µg/mL (≈ 2.86 µM) | 32 µg/mL (≈ 91.6 µM) | 32 µg/mL (≈ 91.6 µM) | > 64 µg/mL | > 64 µg/mL | > 64 µg/mL | 0.25 µg/mL (≈ 0.715 µM) | 16 µg/mL (≈ 45.8 µM) | 16 µg/mL (≈ 45.8 µM) | 2 µg/mL (≈ 5.72 µM) | 1 µg/mL (≈ 2.86 µM) | > 64 µg/mL | 0.5 µg/mL (≈ 1.43 µM) | MIC (S. aureus ATCC 29213; [1]): 1 µg/mL (≈ 2.86 µM); MIC (S. suis SH0918): 0.25 µg/mL (≈ 0.715 µM); MIC (S. suis P1/7): 0.5 µg/mL (≈ 1.43 µM); MIC (S. enteritis S1): 32 µg/mL (≈ 91.6 µM) |
| C[C@H]1[C@H](NC(=O)/C(=N\OC(C)(C)C(=O)O)c2csc(N)n2)C(=O)N1S(=O)(=O)O [ATM, Aztreonam] | > 64 µg/mL | > 64 µg/mL | 0.25 µg/mL (≈ 0.574 µM) |  |  |  |  |  |  |  | > 64 µg/mL | 4 µg/mL (≈ 9.19 µM) | 2 µg/mL (≈ 4.59 µM) |  |  |  |  |  |  |  | MIC (S. enteritis S1): 2 µg/mL (≈ 4.59 µM) |
| O=C(O)c1cn(C2CC2)c2cc(N3CCNCC3)c(F)cc2c1=O [CIP, ciprofloxacin] |  |  |  | 2 µg/mL (≈ 6.04 µM) | 8 µg/mL (≈ 24.1 µM) | 0.5 µg/mL (≈ 1.51 µM) | 16 µg/mL (≈ 48.3 µM) | 1 µg/mL (≈ 3.02 µM) | 8 µg/mL (≈ 24.1 µM) | 2 µg/mL (≈ 6.04 µM) |  |  |  | 16 µg/mL (≈ 48.3 µM) | 32 µg/mL (≈ 96.6 µM) | 16 µg/mL (≈ 48.3 µM) | 0.25 µg/mL (≈ 0.754 µM) | 0.5 µg/mL (≈ 1.51 µM) | 4 µg/mL (≈ 12.1 µM) | 1 µg/mL (≈ 3.02 µM) | MIC (S. suis SH0918): 16 µg/mL (≈ 48.3 µM) |
| CCC[C@@H]1C[C@@H](C(=O)N[C@@H]([C@H]2O[C@H](SC)[C@H](O)[C@@H](O)[C@H]2O)[C@H](C)Cl)N(C)C1 [CLI, clindamycin] | > 64 µg/mL | 0.5 µg/mL (≈ 1.18 µM) | > 64 µg/mL | > 64 µg/mL | > 64 µg/mL | 0.5 µg/mL (≈ 1.18 µM) | > 64 µg/mL | 0.5 µg/mL (≈ 1.18 µM) | > 64 µg/mL | > 64 µg/mL | > 64 µg/mL | > 64 µg/mL | > 64 µg/mL | > 64 µg/mL | > 64 µg/mL | > 64 µg/mL | > 64 µg/mL | > 64 µg/mL | > 64 µg/mL | > 64 µg/mL | MIC (S. aureus ATCC 29213): 0.125 µg/mL (≈ 0.294 µM); MIC (S. suis SH0918): > 64 µg/mL; MIC (S. suis P1/7): 0.125 µg/mL (≈ 0.294 µM); MIC (S. enteritis S1): > 64 µg/mL |
| C[C@H]1c2cccc(O)c2C(=O)C2=C(O)[C@]3(O)C(=O)C(C(N)=O)=C(O)[C@@H](N(C)C)[C@@H]3[C@@H](O)[C@@H]21 [DOX, doxycycline] | > 64 µg/mL | < 0.06 µg/mL | 1 µg/mL (≈ 2.25 µM) | 0.5 µg/mL (≈ 1.13 µM) | 16 µg/mL (≈ 36 µM) | 4 µg/mL (≈ 9 µM) | 16 µg/mL (≈ 36 µM) | < 0.06 µg/mL | 16 µg/mL (≈ 36 µM) | 16 µg/mL (≈ 36 µM) | > 64 µg/mL | 16 µg/mL (≈ 36 µM) | 8 µg/mL (≈ 18 µM) | < 0.06 µg/mL | 16 µg/mL (≈ 36 µM) | 16 µg/mL (≈ 36 µM) | 0.25 µg/mL (≈ 0.563 µM) | 0.25 µg/mL (≈ 0.563 µM) | 0.5 µg/mL (≈ 1.13 µM) | 2 µg/mL (≈ 4.5 µM) | MIC (S. aureus ATCC 29213; [1]): 0.25 µg/mL (≈ 0.563 µM); MIC (S. suis SH0918): 16 µg/mL (≈ 36 µM); MIC (S. suis P1/7): 0.125 µg/mL (≈ 0.281 µM); MIC (S. enteritis S1): > 64 µg/mL |
